Test results from publication PMC10683023, “Targeting Glial Cells by Organic Anion-Transporting Polypeptide 1C1 (OATP1C1)-Utilizing L-Thyroxine-Derived Prodrugs” (Journal of Medicinal Chemistry, 2023).

Tests used:
[1] = Enzymatic bioconversion in human liver S9 fraction; assay type: in vitro ADME; details: for Enzymatic stability, remaining percentage, human liver S9: after 5 h incubation, 100 μM prodrug
Protocol: (§1) The rates of bioactivation of the prodrugs 1–8 in mouse and human liver S9 fractions, as well as in mouse primary astrocyte–microglia homogenate, were determined at +37 °C. The incubation mixtures were prepared by mixing liver S9 subcellular fraction or brain cell homogenate (final protein concentration 1.0 mg/mL) with isotonic Tris–HCl buffer (pH 7.4) and 10 mM prodrug stock solution in DMSO (the initial concentration of prodrugs was 100 μM and the DMSO concentration was […]). The mixture was incubated for 5 h, and the samples ([…]) were withdrawn at appropriate intervals. The enzymatic reaction was terminated by the addition of ice-cold acetonitrile ([…]), and the samples were centrifuged for 5 min at 12 000 rpm at room temperature and kept on ice until the supernatants were analyzed by the HPLC method described below. In blank reactions, the S9 fractions were replaced with the same volume of buffer. The pseudo-first-order half-lives (t1/2) for the rates of bioconversion of the prodrugs were calculated from the slope of the linear portion of the plotted logarithm of the remaining prodrug concentration versus time. The rates of bioactivation of prodrugs 1–8 in human plasma and mouse serum were determined at 37 °C as above by adding 10 mM stock solution of the prodrug to plasma/serum in a ratio of 1:10 and analyzed similarly to the samples from S9 fractions.
(§2) The amount of prodrug 1–8 was determined by the HPLC system, which consisted of an Agilent 1100 binary pump (Agilent Technologies Inc., Wilmington, DE), an 1100 micro vacuum degasser, an HP 1050 Autosampler, and an HP 1050 variable wavelength detector, operated at 230–240 nm. The chromatographic separations were achieved on an Agilent Zorbax SB-C18 analytical column (4.4 mm × 150 mm, 5 μm) (Agilent Technologies Inc., Wilmington, DE) by using isocratic elution of water containing 0.1% formic acid (pH ca. 3.0) and acetonitrile containing 0.1% formic acid with ratios of 50:50, 30:70, 40:60, 50:50, 50:50, 40:60, 40:60, and 30:70 (v/v), respectively, for prodrug 1–8. […] The lower limit of quantification for prodrugs 1–8 was 0.20 μM. These HPLC methods were also accurate, precise, and selective over the range of 0.5–20 μM.

[2] = Enzymatic bioconversion in mouse serum; assay type: in vitro ADME; details: for Enzymatic stability, remaining percentage, mouse serum: after 5 h incubation
Protocol: as §1, §2

[3] = Enzymatic bioconversion in mouse liver S9 fraction; assay type: in vitro ADME; details: for Enzymatic stability, remaining percentage, mouse liver S9: after 5 h incubation, 100 μM prodrug; for Enzymatic stability, remaining percentage, mouse liver S9 / half-life at 100 µM: 37 °C, mean ± SD, n = 3; for Bioconversion rate in mouse liver S9 relative to the corresponding T4 derivative: DIT prodrug faster than T4 prodrug; for half-life at 100 µM: mouse, pH 7.4, liver S9 fraction, read-out: Enzymatic bioconversion half-life t1/2, mouse liver
Protocol: as §1, §2

OATP1C1 = target: T1, OATP1C1 (Homo sapiens, UniProt Q9NYB5); experiment: Competitive uptake into U-87MG cells in the presence of OATP1C1 inhibitors diclofenac and flufenamic acid; assay type: cell-based; details: 100 μM prodrug; for Reduction of cellular uptake by DCF: 100 μM diclofenac; for Cellular uptake in the presence of OATP1C1 inhibitors (DCF and FFA): 100 μM inhibitor, result in words
T1 construct: human U-87MG cells that expressed OATP1C1, but not other OATPs; endogenous in cells; host or cells: U-87MG human glioma cells
T1 sequence (Q9NYB5 1-712): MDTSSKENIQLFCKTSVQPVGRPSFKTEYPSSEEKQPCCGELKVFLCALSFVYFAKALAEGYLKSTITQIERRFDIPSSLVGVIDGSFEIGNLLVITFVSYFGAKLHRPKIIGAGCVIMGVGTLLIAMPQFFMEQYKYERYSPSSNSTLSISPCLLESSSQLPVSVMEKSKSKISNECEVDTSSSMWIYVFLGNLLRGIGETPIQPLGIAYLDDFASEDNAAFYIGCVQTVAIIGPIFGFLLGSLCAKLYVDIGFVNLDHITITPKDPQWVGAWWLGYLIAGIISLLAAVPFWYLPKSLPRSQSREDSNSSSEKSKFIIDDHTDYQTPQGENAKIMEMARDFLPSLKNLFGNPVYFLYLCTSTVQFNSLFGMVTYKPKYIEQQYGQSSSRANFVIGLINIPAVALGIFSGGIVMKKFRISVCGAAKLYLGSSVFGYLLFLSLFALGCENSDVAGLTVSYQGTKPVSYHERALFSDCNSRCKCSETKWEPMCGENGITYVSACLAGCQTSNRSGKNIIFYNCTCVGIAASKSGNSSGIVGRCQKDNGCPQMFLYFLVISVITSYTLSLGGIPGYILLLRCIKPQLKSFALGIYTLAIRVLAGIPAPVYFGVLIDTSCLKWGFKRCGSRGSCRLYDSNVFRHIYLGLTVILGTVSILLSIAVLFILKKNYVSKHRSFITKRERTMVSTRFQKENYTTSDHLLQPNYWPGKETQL
Protocol: The competitive uptake in the presence of OATP-inhibitors or competing substrates (100 μM), diclofenac (DFC) and flufenamic acid (FFA), for OATP1C1 and naringin (NRG) for OATP1A2 was carried out as described above with HBSS buffer at pH 7.4 containing 100 μM of the studied compound. The cells were preincubated with the inhibitors for 10 min, and the incubation mixture was removed before adding the studied compound and the inhibitor to the cells. The competitive uptake (30 min) with the inhibitor was then carried out as the normal uptake described above. The concentrations of the studied compounds were analyzed by the HPLC methods described below, calculated from the spiked standard curve, and normalized with the protein concentrations.
as §2

[4] = Enzymatic bioconversion in human plasma; assay type: in vitro ADME; details: after 5 h incubation, 37 °C, mean ± SD, n = 3
Protocol: as §1, §2

[5] = Enzymatic bioconversion in mouse primary astrocyte–microglia homogenate; assay type: in vitro ADME; details: after 5 h incubation, 100 μM prodrug, 37 °C, mean ± SD, n = 3
Protocol: as §1, §2

Row | Enzymatic stability, remaining percentage, human liver S9 ([1]; 37 °C, mean ± SD, n = 3) | Enzymatic stability, remaining percentage, mouse serum ([2]; 37 °C, mean ± SD, n = 3) | Enzymatic stability, remaining percentage, mouse liver S9 [3] | Reduction of cellular uptake by DCF (OATP1C1) | Cellular uptake in the presence of OATP1C1 inhibitors (DCF and FFA) (OATP1C1) | Enzymatic stability, remaining percentage, human plasma [4] | Enzymatic stability, remaining percentage, mouse brain cell homogenate [5] | inhibition at 30 min, 100 μM (OATP1C1; human, pH 7.4, with flufenamic acid (FFA) 100 μM, 100 μM flufenamic acid, read-out: Inhibition of cellular uptake by FFA) | Bioconversion rate in human liver, slower than that of prodrug 6 [1] | Bioconversion rate in mouse liver S9 relative to the corresponding T4 derivative [3] | half-life at 100 µM [3] | Bioconversion rate in human liver relative to the corresponding T4 derivative ([1]; DIT prodrug faster than T4 prodrug) | half-life at 100 µM ([1]; human, pH 7.4, liver S9 fraction, 37 °C, mean ± SD, n = 3, read-out: Enzymatic bioconversion half-life t1/2, human liver) | Bioconversion rate in mouse serum relative to human plasma ([2]; higher in mouse serum) | half-life at 1 mM ([2]; mouse, serum, 37 °C, mean ± SD, n = 3, read-out: Enzymatic bioconversion half-life t1/2, mouse serum) | Compound
1 | 78.70 ± 3.74% | 98.33 ± 1.67% | 78.10 ± 1.88% | 75% | affected by DCF but not by FFA | 96.32 ± 3.68% | 95.18 ± 4.82% | – | – | – | – | – | – | – | – | COc1ccc2cc([C@H](C)C(=O)Oc3c(I)cc(Oc4c(I)cc(C[C@H](N)C(=O)O)cc4I)cc3I)ccc2c1 [Prodrug 6, (S)-2-Amino-3-(4-(3,5-diiodo-4-(((S)-2-(6-methoxynaphthalen-2-yl)propanoyl)oxy)phenoxy)-3,5-diiodophenyl)propanoic acid]
2 | 69.44 ± 2.10% | 96.75 ± 3.25% | 38.26 ± 4.49% | 25% | affected by DCF but not by FFA | 70.94 ± 29.06% | 92.98 ± 6.14% | – | around 10% | 2 times | 4.15 ± 0.761 h | – | – | – | – | COc1ccc2cc([C@H](C)C(=O)Oc3c(I)cc(C[C@H](N)C(=O)O)cc3I)ccc2c1 [Prodrug 5, (S)-2-Amino-3-(3,5-diiodo-4-(((S)-2-(6-methoxynaphthalen-2-yl)propanoyl)oxy)phenyl)propanoic acid]
3 | 30.54 ± 3.21% | 94.89 ± 5.11% | 25.19 ± 6.22% | – | significantly reduced | 90.52 ± 9.48% | 92.68 ± 7.32% | – | – | around 3 times | 2.69 ± 0.429 h | ~2.5 times | 2.91 ± 0.25 h | – | – | CC(C(=O)Oc1c(I)cc(C[C@H](N)C(=O)O)cc1I)c1ccc(-c2ccccc2)c(F)c1 (mixture of isomers) [Prodrug 7, (2S)-2-Amino-3-(4-((2-(2-fluoro-[1,1′-biphenyl]-4-yl)propanoyl)oxy)-3,5-diiodophenyl)propanoic acid]
4 | 80.17 ± 2.23% | 96.79 ± 3.21% | 84.32 ± 0.99% | – | significantly reduced | 97.17 ± 2.83% | 97.94 ± 2.06% | – | – | – | – | – | – | – | – | CC(C(=O)Oc1c(I)cc(Oc2c(I)cc(C[C@H](N)C(=O)O)cc2I)cc1I)c1ccc(-c2ccccc2)c(F)c1 (mixture of isomers) [Prodrug 8, (2S)-2-Amino-3-(4-(4-((2-(2-fluoro-[1,1′-biphenyl]-4-yl)propanoyl)oxy)-3,5-diiodophenoxy)-3,5-diiodophenyl)propanoic acid]
5 | 84.00 ± 3.90% | 96.79 ± 3.21% | 69.18 ± 0.81% | – | slightly increased | 97.17 ± 2.83% | 91.38 ± 5.34% | – | – | – | – | – | – | – | – | N[C@@H](Cc1cc(I)c(Oc2cc(I)c(OC(=O)c3ccccc3O)c(I)c2)c(I)c1)C(=O)O [Prodrug 4, (S)-2-Amino-3-(4-(4-((2-hydroxybenzoyl)oxy)-3,5-diiodophenoxy)-3,5-diiodophenyl)propanoic acid]
6 | 96.84 ± 3.16% | 14.40 ± 0.60% | 99.06 ± 0.94% | – | not affected significantly | 68.94 ± 2.01% | 95.26 ± 4.74% | – | – | – | – | – | – | 5 times | 1.39 ± 0.49 h | N[C@@H](Cc1cc(I)c(OC(=O)c2ccccc2O)c(I)c1)C(=O)O [Prodrug 3, (S)-2-Amino-3-(4-((2-hydroxybenzoyl)oxy)-3,5-diiodophenyl)propanoic acid]

Row | Compound | Enzymatic stability, remaining percentage, human liver S9 ([1]; 37 °C, mean ± SD, n = 3) | Enzymatic stability, remaining percentage, mouse serum ([2]; 37 °C, mean ± SD, n = 3) | Enzymatic stability, remaining percentage, mouse liver S9 [3] | Reduction of cellular uptake by DCF (OATP1C1) | Cellular uptake in the presence of OATP1C1 inhibitors (DCF and FFA) (OATP1C1) | Enzymatic stability, remaining percentage, human plasma [4] | Enzymatic stability, remaining percentage, mouse brain cell homogenate [5] | inhibition at 30 min, 100 μM (OATP1C1; human, pH 7.4, with flufenamic acid (FFA) 100 μM, 100 μM flufenamic acid, read-out: Inhibition of cellular uptake by FFA) | Bioconversion rate in human liver, slower than that of prodrug 6 [1] | Bioconversion rate in mouse liver S9 relative to the corresponding T4 derivative [3] | half-life at 100 µM [3] | Bioconversion rate in human liver relative to the corresponding T4 derivative ([1]; DIT prodrug faster than T4 prodrug) | half-life at 100 µM ([1]; human, pH 7.4, liver S9 fraction, 37 °C, mean ± SD, n = 3, read-out: Enzymatic bioconversion half-life t1/2, human liver) | Bioconversion rate in mouse serum relative to human plasma ([2]; higher in mouse serum) | half-life at 1 mM ([2]; mouse, serum, 37 °C, mean ± SD, n = 3, read-out: Enzymatic bioconversion half-life t1/2, mouse serum)
7 | CC(C(=O)Oc1c(I)cc(Oc2c(I)cc(C[C@H](N)C(=O)O)cc2I)cc1I)c1cccc(C(=O)c2ccccc2)c1 (mixture of isomers) [Prodrug 2, (2S)-2-Amino-3-(4-(4-((2-(3-benzoylphenyl)propanoyl)oxy)-3,5-diiodophenoxy)-3,5-diiodophenyl)propanoic acid] | 85.71 ± 4.27% | 98.79 ± 1.21% | 87.59 ± 1.20% | ca. 56% | reduced more effectively compared to prodrug 1 | 96.47 ± 3.53% | 96.01 ± 3.99% | ~42% | – | – | – | – | – | – | –
